Values after ≈ are worked out from the molar mass of the structure shown. Values joined by “and” are separate entries in the source; they are usually repeats but may differ in a detail not shown here. Identical values can stand only once.
Experiments:
Format in all cases: functional
[1] = test system: Mycobacterium tuberculosis; experiment: Antimycobacterial activity against pre-extensively drug resistant Mycobacterium tuberculosis 1576 incubated for 7 days by resazurin dye based two-dimensional micro dilution checkerboard assay in presence of 2-aminoheptadecan-1-ol; details: time 7 day
[2] = test system: Mycobacterium tuberculosis; experiment: Antimycobacterial activity against pre-extensively drug resistant Mycobacterium tuberculosis 1576 incubated for 7 days by resazurin dye based two-dimensional micro dilution checkerboard assay in presence of 1-(benzyloxy)heptadecan-2-amine; details: time 7 day
[3] = test system: Mycobacterium tuberculosis; experiment: Antimycobacterial activity against isoniazid, rifampicin, ethambutol, streptomycin and levofloxacin resistant Mycobacterium tuberculosis clinical isolate 1576 incubated for 7 days by resazurin dye based colorimetric method analysis; details: Mycobacterium tuberculosis, 1576, 168 h; time 7 day
[4] = test system: Mycobacterium tuberculosis; experiment: Antimycobacterial activity against pre-extensively drug resistant Mycobacterium tuberculosis 1576 incubated for 7 days by resazurin dye based two-dimensional micro dilution checkerboard assay in presence of 1-((3,4,5-trimethoxybenzyl)oxy)heptadecan-2-amine; details: time 7 day
[5] = test system: Mycobacterium tuberculosis; experiment: Additive antimycobacterial activity against pre-extensively drug resistant Mycobacterium tuberculosis 1576 assessed as fractional inhibitory concentration index incubated for 7 days by resazurin dye based two-dimensional micro dilution checkerboard assay in presence of amikacin; details: time 7 day
[6] = test system: Mycobacterium tuberculosis; experiment: Additive antimycobacterial activity against pre-extensively drug resistant Mycobacterium tuberculosis 1576 assessed as fractional inhibitory concentration index incubated for 7 days by resazurin dye based two-dimensional micro dilution checkerboard assay in presence of levofloxacin; details: time 7 day
[7] = test system: Mycobacterium tuberculosis; experiment: Antimycobacterial activity against pre-extensively drug resistant Mycobacterium tuberculosis 1576 assessed as reduction in CFU count at 8 uM measured after 12 days relative to control; set-up: scale not given: the % may be the effect or the level left; details: time 12 day
[8] = test system: Mycobacterium tuberculosis; experiment: Synergistic antimycobacterial activity against pre-extensively drug resistant Mycobacterium tuberculosis 1576 assessed as fractional inhibitory concentration index incubated for 7 days by resazurin dye based two-dimensional micro dilution checkerboard assay in presence of rifampicin; details: time 7 day
[9] = test system: Mycobacterium tuberculosis; experiment: Synergistic antimycobacterial activity against pre-extensively drug resistant Mycobacterium tuberculosis 1576 assessed as reduction in concentration required to inhibit bacterial growth incubated for 7 days by resazurin dye based two-dimensional micro dilution checkerboard assay in presence of rifampicin relative to control; set-up: scale not given: the % may be the effect or the level left; details: time 7 day
[10] = test system: Mycobacterium tuberculosis; experiment: Antimycobacterial activity against pre-extensively drug resistant Mycobacterium tuberculosis 1576 assessed as reduction in CFU count at 8 uM in presence of rifampicin measured after 12 days relative to control; set-up: scale not given: the % may be the effect or the level left; details: time 12 day
[11] = test system: Mycobacterium tuberculosis; experiment: Synergistic antimycobacterial activity against pre-extensively drug resistant Mycobacterium tuberculosis 1576 incubated for 7 days by resazurin dye based two-dimensional micro dilution checkerboard assay in presence of rifampicin; details: time 7 day
[12] = test system: Mycobacterium tuberculosis; experiment: Additive antimycobacterial activity against pre-extensively drug resistant Mycobacterium tuberculosis 1576 incubated for 7 days by resazurin dye based two-dimensional micro dilution checkerboard assay in presence of isoniazid; details: time 7 day
[13] = test system: Mycobacterium tuberculosis; experiment: Additive antimycobacterial activity against pre-extensively drug resistant Mycobacterium tuberculosis 1576 assessed as fractional inhibitory concentration index incubated for 7 days by resazurin dye based two-dimensional micro dilution checkerboard assay in presence of isoniazid; details: time 7 day
[14] = test system: Mycobacterium tuberculosis; experiment: Additive antimycobacterial activity against pre-extensively drug resistant Mycobacterium tuberculosis 1576 incubated for 7 days by resazurin dye based two-dimensional micro dilution checkerboard assay in presence of levofloxacin; details: time 7 day
[15] = test system: Mycobacterium tuberculosis; experiment: Additive antimycobacterial activity against pre-extensively drug resistant Mycobacterium tuberculosis 1576 incubated for 7 days by resazurin dye based two-dimensional micro dilution checkerboard assay in presence of amikacin; details: time 7 day
[16] = test system: Mycobacterium tuberculosis; experiment: Additive antimycobacterial activity against pre-extensively drug resistant Mycobacterium tuberculosis 1576 assessed as fractional inhibitory concentration index incubated for 7 days by resazurin dye based two-dimensional micro dilution checkerboard assay in presence of ethambutol; details: time 7 day
[17] = test system: Mycobacterium tuberculosis; experiment: Additive antimycobacterial activity against pre-extensively drug resistant Mycobacterium tuberculosis 1576 incubated for 7 days by resazurin dye based two-dimensional micro dilution checkerboard assay in presence of ethambutol; details: time 7 day
[18] = test system: Mycobacterium tuberculosis; experiment: Additive antimycobacterial activity against pre-extensively drug resistant Mycobacterium tuberculosis 1576 assessed as fractional inhibitory concentration index incubated for 48 hrs by micro dilution checkerboard assay in presence of rifampicin
[19] = test system: Mycobacterium tuberculosis; experiment: Antimycobacterial activity against pre-extensively drug resistant Mycobacterium tuberculosis 1576 assessed as fractional inhibitory concentration index incubated for 7 days by resazurin dye based two-dimensional micro dilution checkerboard assay in presence of rifampicin; details: time 7 day
[20] = test system: Mycobacterium tuberculosis; experiment: Antimycobacterial activity against pre-extensively drug resistant Mycobacterium tuberculosis 1576 incubated for 7 days by resazurin dye based two-dimensional micro dilution checkerboard assay in presence of rifampicin; details: time 7 day

## CC[C@@H](CO)NCCN[C@@H](CC)CO [ETHAMBUTOL]
[1]
  FIC: 0.25
[2]
  FIC: 1
[3]
  MIC: 28.8 µM and 8 µg/mL
[4]
  FIC: 0.25

## CCCCc1ccc(CCCCCCCC(N)CO)cc1 (configuration not stated)
[3]
  MIC: 2 µM (≈ 0.583 µg/mL)

## CCCCCCCCCCCCCCCC(CO)NCCCC (configuration not stated)
[3]
  MIC: 64 µM (≈ 21 µg/mL)

## CCCCCCCCCCCCCCCC(COCc1ccccc1)NCC (configuration not stated)
[3]
  MIC: 16 µM (≈ 6.23 µg/mL)

## CCCCCCCCCCCCCCCC(CNCC)NC(=O)OC(C)(C)C (configuration not stated)
[3]
  MIC: 16 µM (≈ 6.38 µg/mL)

## CO[C@H]1/C=C/O[C@@]2(C)Oc3c(C)c(O)c4c(O)c(c(/C=N/N5CCN(C)CC5)c(O)c4c3C2=O)NC(=O)/C(C)=C\C=C\[C@H](C)[C@H](O)[C@@H](C)[C@@H](O)[C@@H](C)[C@H](OC(C)=O)[C@@H]1C [RIFAMPIN]
[1]
  FIC: 0.031
[2]
  FIC: 0.063
[3]
  MIC: 78 µM and 64 µg/mL
[4]
  FIC: 0.25

## CCCCCCCCCCCCCCCC(CO)N(CCCC)CCCC (configuration not stated)
[3]
  MIC: 8 µM (≈ 3.07 µg/mL)

## CCCCCCCCCCCCCCCC(COCc1ccccc1)NCCCCCC (configuration not stated)
[3]
  MIC: 64 µM (≈ 28.5 µg/mL)

## CCCCCCCCCCCCCCCC(CNCC(=O)OCC)NC(=O)OC(C)(C)C (configuration not stated)
[3]
  MIC: 32 µM (≈ 14.6 µg/mL)

## CCCCCCCCCCCCCCCCCC(N)COCc1ccccc1 (configuration not stated)
[3]
  MIC: 64 µM (≈ 24.9 µg/mL)

## CCCCCCCCCCCCCCCC(N)COCc1cc(OC)c(OC)c(OC)c1 (configuration not stated)
[5]
  fractional inhibitory concentration index (FICI): 0.75
[6]
  fractional inhibitory concentration index (FICI): 1
[7]
  Activity: >99.9%
[8]
  fractional inhibitory concentration index (FICI): 0.5
[9]
  Activity: 75%
[10]
  Activity: >=99.9%
[11]
  FIC: 0.25
[12]
  FIC: 0.5
[3]
  MIC: 8 µM (≈ 3.61 µg/mL)
[13]
  fractional inhibitory concentration index (FICI): 1
[14]
  FIC: 0.5
[15]
  FIC: 0.5
[16]
  fractional inhibitory concentration index (FICI): 0.75
[17]
  FIC: 0.5

## CCCCCCCCCCCCCCCC(CO)NCCCCCC (configuration not stated)
[3]
  MIC: 64 µM (≈ 22.8 µg/mL)

## CCCCCCCCCCCCCCCC(CNCCCC)NC(=O)OC(C)(C)C (configuration not stated)
[3]
  MIC: 8 µM (≈ 3.41 µg/mL)

## CCCCCCCCCCCCCCCCCCCC(COCc1ccccc1)NCC (configuration not stated)
[3]
  MIC: 16 µM (≈ 7.13 µg/mL)

## CCCCCCCCCCCCCCCCCCCC(N)COCc1ccccc1 (configuration not stated)
[3]
  MIC: 32 µM (≈ 13.4 µg/mL)

## CCCCCCCCCCCCCCCCCC(CO)NCCCC (configuration not stated)
[3]
  MIC: 32 µM (≈ 11.4 µg/mL)

## CCCCCCCCCCCCCCCC(N)CNCC (configuration not stated)
[3]
  MIC: 16 µM (≈ 4.78 µg/mL)

## CCCCCCCCCCCC(CNCC)NC(=O)OC(C)(C)C (configuration not stated)
[3]
  MIC: 64 µM (≈ 21.9 µg/mL)

## CCCCCCCCCCCCCCCC(N)CO (configuration not stated)
[5]
  fractional inhibitory concentration index (FICI): 0.75
[6]
  fractional inhibitory concentration index (FICI): 1
[18]
  fractional inhibitory concentration index (FICI): 0.53
[19]
  fractional inhibitory concentration index (FICI): 0.53
[20]
  FIC: 0.5
[12]
  FIC: 0.5
[3]
  MIC: 3.03 µM (≈ 0.823 µg/mL)
[13]
  fractional inhibitory concentration index (FICI): 0.63
[14]
  FIC: 0.5
[15]
  FIC: 0.5
[16]
  fractional inhibitory concentration index (FICI): 0.75
[17]
  FIC: 0.5

## CCCCCCCCCCCCCCCCCCCC(CNCC)NC(=O)OC(C)(C)C (configuration not stated)
[3]
  MIC: 4 µM (≈ 1.82 µg/mL)

## CCCCc1ccc(CCCCCCCC(CO)NC(=O)OC(C)(C)C)cc1 (configuration not stated)
[3]
  MIC: 16 µM (≈ 6.27 µg/mL)

## CCCCCCCCCCCC(CO)NCCCC (configuration not stated)
[3]
  MIC: 32 µM (≈ 8.69 µg/mL)

## CCCCCCCCCCCCCCCCCCCC(CN)NC(=O)OC(C)(C)C (configuration not stated)
[3]
  MIC: 64 µM (≈ 27.3 µg/mL)

## CCCCCCCCCCCCCCCC(CNCCCCCC)NC(=O)OC(C)(C)C (configuration not stated)
[3]
  MIC: 8 µM (≈ 3.64 µg/mL)

## CCCCCCCCCCCCCCCC(N)CN (configuration not stated)
[3]
  MIC: 390 µM (≈ 105 µg/mL)

## CCCCCCCCCCCCCCCCCC(N)CO (configuration not stated)
[3]
  MIC: 8 µM (≈ 2.4 µg/mL)

## CCCCCCCCCCCCCCCC(CN)NC(=O)OC(C)(C)C (configuration not stated)
[3]
  MIC: 17.6 µM (≈ 6.52 µg/mL)

## CCCCCCCCCCCC(CO)N(CC)CC (configuration not stated)
[3]
  MIC: 32 µM (≈ 8.69 µg/mL)

## CCCCCCCCCCCC(CO)NCC (configuration not stated)
[3]
  MIC: 64 µM (≈ 15.6 µg/mL)

## CCCCCCCCCCCCCCCCCC(CO)N(CC)CC (configuration not stated)
[3]
  MIC: > 64 µM

## CCCCc1ccc(CCCCCC(N)CO)cc1 (configuration not stated)
[3]
  MIC: 64 µM (≈ 16.9 µg/mL)

## NCC[C@H](O)C(=O)N[C@@H]1C[C@H](N)[C@@H](O[C@H]2O[C@H](CN)[C@@H](O)[C@H](O)[C@H]2O)[C@H](O)[C@H]1O[C@H]1O[C@H](CO)[C@@H](O)[C@H](N)[C@H]1O [AMIKACIN]
[1]
  FIC: 0.25
[2]
  FIC: 0.125
[3]
  MIC: 0.8 µM and 0.63 µg/mL
[4]
  FIC: 0.25

## C[C@H]1COc2c(N3CCN(C)CC3)c(F)cc3c(=O)c(C(=O)O)cn1c23 [LEVOFLOXACIN ANHYDROUS]
[1]
  FIC: 0.5
[2]
  FIC: 0.5
[3]
  MIC: 5.5 µM and 2 µg/mL
[4]
  FIC: 0.5

## CCCCCCCCCCCC(N)CO (configuration not stated)
[3]
  MIC: 32 µM (≈ 6.89 µg/mL)

## CCCCCCCCCCCCCCCCCC(CN)NC(=O)OC(C)(C)C (configuration not stated)
[3]
  MIC: 16 µM (≈ 6.38 µg/mL)

## CCCCCCCCCCCCCCCC(N)COCc1ccccc1 (configuration not stated)
[5]
  fractional inhibitory concentration index (FICI): 0.63
[6]
  fractional inhibitory concentration index (FICI): 1
[18]
  fractional inhibitory concentration index (FICI): 0.56
[19]
  fractional inhibitory concentration index (FICI): 0.56
[20]
  FIC: 0.5
[12]
  FIC: 0.5
[3]
  MIC: 4.5 µM (≈ 1.63 µg/mL)
[13]
  fractional inhibitory concentration index (FICI): 0.63
[14]
  FIC: 0.5
[15]
  FIC: 0.5
[16]
  fractional inhibitory concentration index (FICI): 1.5
[17]
  FIC: 0.5

## CCCCCCCCCCCCCCCCCCCC(CO)N(CC)CC (configuration not stated)
[3]
  MIC: > 64 µM

## CCCCc1ccc(CCCCCCCCCC(N)CO)cc1 (configuration not stated)
[3]
  MIC: 2 µM (≈ 0.639 µg/mL)

## CCCCCCCCCCCCCCCC(CO)N(CC)CC (configuration not stated)
[3]
  MIC: 32 µM (≈ 10.5 µg/mL)

## CCCCCCCCCCCCCCCCCC(COCc1ccccc1)NCCCCCC (configuration not stated)
[3]
  MIC: 64 µM (≈ 30.3 µg/mL)

## CCCCc1ccc(CCCCCCCCCC(CO)NC(=O)OC(C)(C)C)cc1 (configuration not stated)
[3]
  MIC: 16 µM (≈ 6.71 µg/mL)

## CCCCCCCCCCCCCCCC(CO)NCCCCCCCCCC (configuration not stated)
[3]
  MIC: 64 µM (≈ 26.4 µg/mL)

## CCCCCCCCCCCCCCCC(CN=[N+]=[N-])NC(=O)OC(C)(C)C (configuration not stated)
[3]
  MIC: 16 µM (≈ 6.35 µg/mL)

## NNC(=O)c1ccncc1 [ISONIAZID]
[1]
  FIC: 0.125
[2]
  FIC: 0.125
[3]
  MIC: 934 µM and 128 µg/mL
[4]
  FIC: 0.5

## CCCCCCCCCCCCCCCC(CO)NCC (configuration not stated)
[3]
  MIC: 32 µM (≈ 9.59 µg/mL)

## CCCCCCCCCCCCCCCCCC(CO)NCC (configuration not stated)
[3]
  MIC: 16 µM (≈ 5.24 µg/mL)

## CCCCc1ccc(CCCCCC(CO)NC(=O)OC(C)(C)C)cc1 (configuration not stated)
[3]
  MIC: 16 µM (≈ 5.82 µg/mL)
